Data from BindingDB's records for doi:10.1016/j.bmcl.2011.01.079 (The Scripps Research Institute, 2011).

molecular target: Transcription factor Jun (Homo sapiens, UniProt P05412); test: Inhibition of c-Jun
Sequence (P05412 whole entry): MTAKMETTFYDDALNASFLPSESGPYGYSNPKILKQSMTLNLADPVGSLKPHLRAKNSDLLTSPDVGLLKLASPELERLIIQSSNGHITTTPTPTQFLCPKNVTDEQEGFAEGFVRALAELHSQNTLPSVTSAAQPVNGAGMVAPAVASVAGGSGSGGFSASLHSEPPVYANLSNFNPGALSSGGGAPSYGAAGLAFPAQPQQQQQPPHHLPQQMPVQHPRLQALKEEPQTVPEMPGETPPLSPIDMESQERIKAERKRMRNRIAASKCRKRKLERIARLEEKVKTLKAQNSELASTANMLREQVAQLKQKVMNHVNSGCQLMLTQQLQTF

| IC50 | Structure (SMILES) |
| --- | --- |
| 620 nM | CC(C)n1cc(-c2ccc3cnc(Nc4ccc(-n5cnc(N6CCOCC6)n5)cc4)nc3c2Cl)cn1 [8-chloro-7-(1-isopropyl-1H-pyrazol-4-yl)-N-(4-(3-morpholino-1H-1,2,4-triazol-1-yl)phenyl)quinazolin-2-amine] |
| 100 nM | Cn1cc(-c2ccc3cnc(Nc4ccc(-n5cnc(N6CCOCC6)n5)cc4)nc3c2Cl)cn1 [8-chloro-7-(1-methyl-1H-pyrazol-4-yl)-N-(4-(3-morpholino-1H-1,2,4-triazol-1-yl)phenyl)quinazolin-2-amine] |
| 250 nM | COc1ccc(-c2cccc3cnc(Nc4ccc(-n5cnc(N6CCOCC6)n5)cc4)nc23)cc1F [8-(3-fluoro-4-methoxyphenyl)-N-(4-(3-morpholino-1H-1,2,4-triazol-1-yl)phenyl)quinazolin-2-amine] |
| 200 nM | Cc1ncn(-c2ccc(Nc3ncc4cccc(-c5nccs5)c4n3)cc2)n1 [N-(4-(3-methyl-1H-1,2,4-triazol-1-yl)phenyl)-8-(thiazol-2-yl)quinazolin-2-amine] |
| 310 nM | Cn1cc(-c2ccc3cnc(Nc4ccc(-n5cnc(N6CCOCC6)n5)cc4)nc3c2)cn1 [7-(1-methyl-1H-pyrazol-4-yl)-N-(4-(3-morpholino-1H-1,2,4-triazol-1-yl)phenyl)quinazolin-2-amine] |
| 5100 nM | COc1ccc(-c2cccc3cnc(Nc4ccc(-n5cnc(-c6ccccn6)n5)cc4)nc23)cc1F [8-(3-fluoro-4-methoxyphenyl)-N-(4-(3-(pyridin-2-yl)-1H-1,2,4-triazol-1-yl)phenyl)quinazolin-2-amine] |
| 40 nM | Cc1ccc(-c2ncn(-c3ccc(Nc4ncc5ccc(-c6cn[nH]c6)cc5n4)cc3)n2)cn1 [N-(4-(3-(6-methylpyridin-3-yl)-1H-1,2,4-triazol-1-yl)phenyl)-7-(1H-pyrazol-4-yl)quinazolin-2-amine] |
| 40 nM | Cn1cc(-c2ccc3cnc(Nc4ccc(-n5cnc(N6CCOCC6)n5)cc4)nc3c2-c2ccccc2)cn1 [7-(1-methyl-1H-pyrazol-4-yl)-N-(4-(3-morpholino-1H-1,2,4-triazol-1-yl)phenyl)-8-phenylquinazolin-2-amine] |
| 50 nM | COc1c(-c2cnn(C)c2)ccc2cnc(Nc3ccc(-n4cnc(N5CCOCC5)n4)cc3)nc12 [8-methoxy-7-(1-methyl-1H-pyrazol-4-yl)-N-(4-(3-morpholino-1H-1,2,4-triazol-1-yl)phenyl)quinazolin-2-amine] |
| 160 nM | Cc1c(-c2cnn(C)c2)ccc2cnc(Nc3ccc(-n4cnc(N5CCOCC5)n4)cc3)nc12 [8-methyl-7-(1-methyl-1H-pyrazol-4-yl)-N-(4-(3-morpholino-1H-1,2,4-triazol-1-yl)phenyl)quinazolin-2-amine] |
| 330 nM | Cn1cc(-c2cccc3cnc(Nc4ccc(-n5cnc(N6CCOCC6)n5)cc4)nc23)cn1 [8-(1-methyl-1H-pyrazol-4-yl)-N-(4-(3-morpholino-1H-1,2,4-triazol-1-yl)phenyl)quinazolin-2-amine] |
| 930 nM | Cc1ccc(-c2cccc3cnc(NC4CCC(O)CC4)nc23)cn1 (stereo unspecified) [4-(8-(6-methylpyridin-3-yl)quinazolin-2-ylamino)cyclohexanol] |
| 630 nM | Cc1ccc(-c2cccc3cnc(Nc4ccc5c(c4)OCO5)nc23)cn1 [N-(benzo[d][1,3]dioxol-5-yl)-8-(6-methylpyridin-3-yl)quinazolin-2-amine] |
| 120 nM | c1cc(-n2cnc(N3CCOCC3)n2)ccc1Nc1ncc2ccc(-c3cn[nH]c3)cc2n1 [N-(4-(3-morpholino-1H-1,2,4-triazol-1-yl)phenyl)-7-(1H-pyrazol-4-yl)quinazolin-2-amine] |
| 500 nM | COc1ccc(-c2cccc3cnc(Nc4ccc(-n5cnc(C)n5)cc4)nc23)cc1F [8-(3-fluoro-4-methoxyphenyl)-N-(4-(3-methyl-1H-1,2,4-triazol-1-yl)phenyl)quinazolin-2-amine] |
| 3000 nM | Cc1ccc(-c2cccc3cnc(N[C@H]4CC[C@@H](C(=O)N5CCCC5)CC4)nc23)cn1 [((cis)-4-(8-(6-methylpyridin-3-yl)quinazolin-2-ylamino)cyclohexyl)(pyrrolidin-1-yl)methanone] |
| 130 nM | Cn1cc(-c2ccc3cnc(Nc4ccc(-n5cnc(N6CCOCC6)n5)cc4)nc3c2C2CC2)cn1 [8-cyclopropyl-7-(1-methyl-1H-pyrazol-4-yl)-N-(4-(3-morpholino-1H-1,2,4-triazol-1-yl)phenyl)quinazolin-2-amine] |
| 1400 nM | c1ccc(-c2cccc3cnc(Nc4ccc(-n5cnc(N6CCOCC6)n5)cc4)nc23)cc1 [N-(4-(3-morpholino-1H-1,2,4-triazol-1-yl)phenyl)-8-phenylquinazolin-2-amine] |
| 40 nM | Cn1cc(-c2ccc3cnc(Nc4ccc(-n5cnc(N6CCOCC6)n5)cc4)nc3c2-c2cnn(C)c2)cn1 [7,8-bis(1-methyl-1H-pyrazol-4-yl)-N-(4-(3-morpholino-1H-1,2,4-triazol-1-yl)phenyl)quinazolin-2-amine] |
| 290 nM | Cn1cc(-c2ccc3cnc(Nc4ccc(-n5cnc(-c6ccccn6)n5)cc4)nc3c2)cn1 [7-(1-methyl-1H-pyrazol-4-yl)-N-(4-(3-(pyridin-2-yl)-1H-1,2,4-triazol-1-yl)phenyl)quinazolin-2-amine] |
| 3000 nM | c1cc(-c2nccs2)c2nc(Nc3ccc(-n4cnc(N5CCOCC5)n4)cc3)ncc2c1 [N-(4-(3-morpholino-1H-1,2,4-triazol-1-yl)phenyl)-8-(thiazol-2-yl)quinazolin-2-amine] |
